# Experimental data as given in article PMC6443933, “Antagonizing Retinoic Acid-Related-Orphan Receptor Gamma Activity Blocks the T Helper 17/Interleukin-17 Pathway Leading to Attenuated Pro-inflammatory Human Keratinocyte and Skin Responses” (Frontiers in Immunology, 2019).
# Tests used:
# naive human CD4+ T-cells = assay: Th17 polarization of naive CD4+ T-cells, IL-17A ELISA; assay type: cell-based; settings: T-cell, 168 h, Th17 differentiation 7 days, read-out: IC50, IL-17A secretion
# Description: (§1) Total, naive and memory CD4^+ T cells were isolated from Peripheral blood mononuclear cells (PBMCs) from healthy volunteers by density gradient centrifugation using Ficoll Paque (GE). Total, naive or memory CD4^+ T-cells were prepared by immunomagnetic separation using the respective CD4^+ T-cell enrichment kits resulting in untouched highly purified subsets (EasySep™, Stem Cell). Purity was assessed by flow cytometry and was between 95 and 98% for the total CD4^+ T-cells. The purity of naive (CD45RA^+CD45RO^−) and memory (CD45RA^−CD45RO^+) CD4^+T-cells ranged between 95 and 98%, respectively. For T-cell stimulation experiments, cells were treated as previously published ([44]). Briefly, T-cells were stimulated with plate-bound monoclonal antibodies against CD3 (1 μg/ml, clone OKT-3, BioXcell) and CD28 (1 μg/ml, clone CD28.2, BioLegend). For Th17 polarization assays, IL-6 (20 ng/ml), TGF-β1 (5 ng/ml), IL-1β (10 ng/ml), and IL-23 (10 ng/ml) were added. For Th1 polarization assays, IL-12 (10 ng/ml) and anti-IL-4 antibody (5 μg/ml), for Th2 polarizations, IL-4 (10 ng/ml) and anti-IFN-γ antibody (5 μg/ml) were added. For Th0 polarization assays, cells were only stimulated with CD3 and CD28 antibodies. […] Cytokine concentrations were quantified by ELISA according to the manufacturer's instructions (eBioscience or BioLegend).
# RORγt-LBD = target: T1, RORγt-LBD (Homo sapiens, UniProt P51449); assay: RORγt-LBD/GAL4 transactivation reporter gene assay in Jurkat T-cells; assay type: cell-based
# T1 construct: luciferase reporter gene transcription is driven by the GAL4-RORγt-LBD fusion construct; expressed in transfected cells; host or cells: Jurkat cells stably carrying pGL4.35 (9 x GAL4 sites, luciferase)
# T1 sequence (P51449 269-508 limits assumed): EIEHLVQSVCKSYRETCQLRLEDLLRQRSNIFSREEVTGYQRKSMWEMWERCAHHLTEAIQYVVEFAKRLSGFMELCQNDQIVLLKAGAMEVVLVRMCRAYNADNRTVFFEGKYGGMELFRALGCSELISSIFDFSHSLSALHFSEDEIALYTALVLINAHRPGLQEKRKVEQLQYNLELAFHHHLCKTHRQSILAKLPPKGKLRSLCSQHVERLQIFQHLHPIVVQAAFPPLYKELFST
# Description: Selectivity against other ROR family members was assessed in a GAL4 reporter gene assay as previously described ([44]). Briefly, Jurkat cells stably expressing the pGL4.35 plasmid (Promega) containing nine GAL4 binding sites inducing the transcription of the luciferase reporter gene were transiently transfected with the human RORα, RORβ or RORγt-LBD/GAL4-DBD constructs. After 24 h post-transfection, cells were incubated with Cpd A for an additional 24 h before luciferase activity was determined using an EnVision Multilabel Plate Reader (Perkin Elmer).
# [1] = system: STAT3 phosphorylation in Ba/F3 cells stably expressing the human IL-21 receptor; assay: IL-21-induced phospho-STAT3 by flow cytometry; assay type: cell-based; settings: 10 μM, 1 h pre-incubation, vs DMSO
# Description: To assess whether Cpd A affected STAT3 activity we induced STAT3 phosphorylation in Ba/F3 cells stably expressing the human IL-21 receptor (kindly provided by Dr. Max Warncke, Novartis). Cells were pre-incubated for 1 h with 10 μM of Cpd A or with 1 μM of the pan-JAK inhibitor CP690550. To induce STAT3 activity, the cells were stimulated for 1.5 h with recombinant human IL-21 (3 nM), followed by two washing steps using buffer containing PBS/0.5% BSA. The cells were fixed with 2% paraformaldehyde for 15 min at room temperature, washed and resuspended in ice-cold 90% methanol solution and stored overnight at −20°C. The samples were washed and stained for 1 h with an Alexa 647-labeled anti-phospho (pY705)-STAT3 antibody (BD biosciences). After two washes the cells were analyzed using a LSR Fortessa (BD Bioscience) and analyzed using FlowJo software (Tree Star).
# [2] = system: T2, RORγt binding to RORE DNA binding sites; assay: RORE oligonucleotide pull-down assay; assay type: cell-based, human; settings: 10 μM, HUT78-RORγt nuclear extracts, anti-CD3/PMA 2 h, vs DMSO
# T2 construct: HUT78 T-cells stably expressing full-length eGFP-RORγt; eGFP; expressed in transfected cells
# Description: In order to detect RORγt binding to its cognate DNA binding sites, biotinylated oligonucleotide probes containing putative 4 × RORE or mutated-RORE DNA sequences were synthesized (Microsynth, Switzerland) and annealed in order to form a double stranded DNA probe. The probes contained the following sequences (where the bold nucleotides represent a putative RORγt binding site or the mutated form of the RORE):
# Nuclear extracts originating from HUT78 cells stably expressing eGFP-RORγt were prepared as previously described ([45]). Briefly, cells were incubated with Cpd A (10 μM final concentration) for 0.5 h followed by a 2 h-stimulation period using CD3 antibody (2.5 μg/ml, clone OKT-3, BioXcell) plus PMA (8 ng/ml, Sigma). Nuclear lysates were generated using a nuclear extraction kit (Pierce, Thermo scientific), followed by a pre-clearing step with streptavidin-sepharose beads (GE healthcare Amersham) for 1 h at 4°C. The supernatants were incubated with biotinylated double-stranded RORE or with mutated RORE probes (10 nM final concentration) for 1 h at 4°C, followed by addition of a 50% slurry of streptavidin-sepharose beads for 1 h. The bound complexes were washed five times with 1 ml buffer consisting of 50 mM Tris-HCl, 1 mM EDTA, 1% NP-40, 150 mM NaCl and protease inhibitors (Roche). […]
# total CD4+ T-cells = assay: Intracellular FACS of IL-17A/IFN-γ-producing CD4+ T-cells after Th17 polarization; assay type: cell-based, human; settings: 3-day Th17 differentiation
# Description: as §1, with “or BioLegend). […]” for “or BioLegend).”
compound,measurement,setting,value
"Cc1ccc(C(=O)Nc2cn3ccnc3c(CN3CCN(c4noc(C(C)(C)C)n4)[C@@H](C)C3)c2C)cn1 [Cpd A, (S)-N-(8-((4-(5-(tert-butyl)-1,2,4-oxadiazol-3-yl)-3-methylpiperazin-1-yl)methyl)-7-methylimidazo[1,2-a]pyridin-6-yl)-6-methylnicotinamide]",IC50,naive human CD4+ T-cells,15 nM
same,inhibition of GAL4 promoter activity,RORγt-LBD,complete inhibition
same,IC50,"RORγt-LBD; luciferase, 24 h with compound",95 nM
same,IL-21-induced STAT3 phosphorylation (pY705),[1],did not affect
same,RORγt association with the ROR elements,[2],still intact
same,frequencies of IFN-γ+ cells,total CD4+ T-cells,not affected
same,frequencies of IL-17A+ cells within the CD4+ T-cell population,total CD4+ T-cells,reduced
